Where “and” joins values, the source holds several entries; their conditions need not be identical. Equal values may be shown once.
Key:
h5-HT2A = target: T1, h5-HT2A (Homo sapiens, UniProt P28223); assay: Radioligand binding, human cloned h5-HT2A
T1 construct: expressed in transfected cells; host or cells: AV12 cells
Procedure: (§1) Binding affinities at the serotonin receptors were determined by standard radioligand-binding methods using human cloned receptors as reported in the literature ([14], [15]).

h5-HT2C = target: T2, h5-HT2C (Homo sapiens, UniProt P28335); assay: Radioligand binding, human cloned h5-HT2C; conditions: agonist radioligand, read-out: Affinity, Mean
T2 construct: expressed in transfected cells; host or cells: AV12 cells
Procedure: as §1

h5-HT6 = target: T3, h5-HT6 (Homo sapiens, UniProt P50406); assay: Radioligand binding, human cloned h5-HT6; conditions: agonist radioligand, read-out: Affinity, Mean
T3 construct: expressed in transfected cells
Procedure: as §1

Male, Wistar rats [1] = assay: Schedule-induced polydipsia; format: in vivo, rat; conditions: for Decrease of excessive water consumption: sc
Source text: Rats were used in these experiments as they have been utilized for such studies in the past with great success in generating significant polydipsia ([16]). Male, Wistar rats were singly housed, and maintained at approximately 85% of their free-feeding weights with free access to water. Twelve adult male, Wistar rats (Harlan Industries, Indianapolis, IN, USA) were used. They were allowed to acclimate to our vivarium for at least 3 days prior to testing. They were 2 months old at the start of the experiments that lasted approximately 6–8 months and were without explicit experimental experience prior to this study. The rats were singly housed, and maintained at approximately 86–91% of their free-feeding weights with post session supplemental feeding of Lab Diet #5001 for rodents (PMI Nutrition International Inc., St. Louis, MO, USA). Body weights were corrected for the normal growth curve of Wistar rats such that actual body weight of each rat increased over the experimental time frame. Water was available continuously in the individual home cages. Rats were inspected daily 7 days/week by experimenters and veterinary staff.
The experiments were conducted using operant behavior test chambers ENV-007 (Med Associates Inc., Georgia, VT, USA), 30.5 cm × 24.1 cm × 29.2 cm. The test chambers were contained within light and sound attenuating shells. A food trough was mounted 2 cm off the grid floor on the centerline. Two response levers were centered 8 cm off the centerline and 7 cm off the grid floor. Three lights were located above each response lever at 15 cm off the grid floor. All events were controlled and lever-press data were recorded by a Compaq computer running MED-PC Version IV (Med Associates Inc., Georgia, VT, USA). The water bottle located within each chamber was weighed before and after experimental sessions.
Experimental sessions lasted 90 min. Test compounds or drug vehicle were administered on Tuesdays and Fridays, given the stability of performance (within 15% variation of the individual animal). Non-injection, control performances were on Thursdays. […] Dose-effect curves and drug interaction data were created by repeated testing in groups of five to eight rats. Test compounds were administered as described in figure legends. The effects of the compound are expressed as a percent of control for each individual animal. Results were analyzed by ANOVA followed by Dunnett’s multiple comparison (p < 0.05).
Thus, in keeping with the guidelines of animal care and use followed here, we utilized the minimum number of animals required for signal detection.

Male, Wistar rats [2] = assay: Isoproterenol-induced drinking; format: in vivo, rat; conditions: 5.6 mg/kg
Procedure: Male, Wistar rats (different from those rats used in the schedule-induced polydipsia studies) were used. They were 331 ± 11 g at the initiation of this study. Compound 1 (5.6 mg/kg, s.c.) was evaluated for its ability to reduce drinking. (±)-isoproterenol (30 μg/kg, s.c.) was given to induce drinking (n = 5–20 rat/group). Ten minutes after vehicle or (±)-isoproterenol injection, rats were given either vehicle or Compound 1 and a 60 min session began in which the rats in individual housing cages were given access to water 20 min after the second injection. The weight of the water bottle before and after the 60 min period was measured to the nearest 0.1 g. After the experiment, the animals were returned to their living cages with continuous access to food and water.

[3] = 10 mg/kg, five consecutive days

T2 sequence (P28335 33-458): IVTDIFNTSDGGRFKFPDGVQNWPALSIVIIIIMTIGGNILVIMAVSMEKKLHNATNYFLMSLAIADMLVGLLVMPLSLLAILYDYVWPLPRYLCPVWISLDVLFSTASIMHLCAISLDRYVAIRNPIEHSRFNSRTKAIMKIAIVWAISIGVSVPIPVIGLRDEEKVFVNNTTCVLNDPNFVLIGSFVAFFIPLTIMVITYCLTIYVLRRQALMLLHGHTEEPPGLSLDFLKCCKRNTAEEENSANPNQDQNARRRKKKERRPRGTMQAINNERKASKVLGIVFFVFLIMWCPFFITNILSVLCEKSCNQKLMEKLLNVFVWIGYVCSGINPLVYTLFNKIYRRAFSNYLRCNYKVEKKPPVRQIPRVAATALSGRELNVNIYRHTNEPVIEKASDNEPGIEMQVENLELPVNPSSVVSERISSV
T1 sequence (P28223 whole entry): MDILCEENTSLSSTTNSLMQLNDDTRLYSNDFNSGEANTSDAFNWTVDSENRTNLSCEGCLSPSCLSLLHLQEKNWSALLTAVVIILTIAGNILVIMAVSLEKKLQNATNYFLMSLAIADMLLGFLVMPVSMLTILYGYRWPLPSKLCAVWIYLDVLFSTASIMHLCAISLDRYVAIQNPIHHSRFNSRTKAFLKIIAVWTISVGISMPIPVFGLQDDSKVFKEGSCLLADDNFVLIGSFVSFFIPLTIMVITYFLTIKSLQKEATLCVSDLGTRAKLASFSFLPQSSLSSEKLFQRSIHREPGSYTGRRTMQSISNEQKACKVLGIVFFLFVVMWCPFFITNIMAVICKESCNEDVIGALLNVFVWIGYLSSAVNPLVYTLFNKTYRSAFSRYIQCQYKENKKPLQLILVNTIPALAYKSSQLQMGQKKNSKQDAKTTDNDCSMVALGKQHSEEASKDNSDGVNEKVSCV
T3 sequence (P50406 whole entry): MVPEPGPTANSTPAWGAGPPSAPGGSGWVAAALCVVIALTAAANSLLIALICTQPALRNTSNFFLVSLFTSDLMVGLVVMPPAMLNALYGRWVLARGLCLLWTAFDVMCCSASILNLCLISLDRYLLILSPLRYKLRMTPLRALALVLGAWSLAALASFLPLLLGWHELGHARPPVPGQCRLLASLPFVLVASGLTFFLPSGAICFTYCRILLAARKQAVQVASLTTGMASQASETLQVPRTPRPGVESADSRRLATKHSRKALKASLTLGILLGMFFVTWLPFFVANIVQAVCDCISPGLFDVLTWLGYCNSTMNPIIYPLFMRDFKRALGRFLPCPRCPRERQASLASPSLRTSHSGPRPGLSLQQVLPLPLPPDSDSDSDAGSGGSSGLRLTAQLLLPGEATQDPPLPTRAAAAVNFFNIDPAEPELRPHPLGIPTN

SMILES: C[C@H]1CN(c2ccc(C(F)(F)F)c3ccoc23)CCN1 [CPD 1, (3S)-3-methyl-1-[4-(trifluoromethyl)-7-benzofuranyl]-piperazine]
- Ki (h5-HT2A; agonist radioligand, h5-HT2A, read-out: Affinity, Mean): 0.0472 µM
- selectivity for h5-HT2C over h5-HT2A receptors (h5-HT2A; binding affinities): 22 fold
- Ki (h5-HT2C): 0.002 µM and 0.00211 µM
- Ki (h5-HT6): 0.212 µM
- Attenuation (tolerance) of the effect over 5 days (Male, Wistar rats [1]; [3]): not a significant attenuation
- Effect on excessive water consumption over 5 days of dosing (Male, Wistar rats [1]; [3]): significantly decreased
- Decrease of excessive water consumption (Male, Wistar rats [1]; CPD 1 5.6 mg/kg sc with MDL100907 0.1 mg/kg, 30 min prior): 65%
- Decrease of excessive water consumption (Male, Wistar rats [1]; CPD 1 5.6 mg/kg, 20 min prior): 64%
- Dose at which statistically significant reduction of excessive drinking was detected (Male, Wistar rats [1]; Dunnett p < 0.05): ≥ 3 mg/kg
- Effect on excessive drinking / amount of water consumed (Male, Wistar rats [1]; given alone, acute dosing): dose-dependently suppressed
- Effect on number of responses emitted (lever pressing for food) (Male, Wistar rats [1]; given alone, acute dosing): without affecting response output
- Reduction of isoproterenol-induced drinking (Male, Wistar rats [2]; s.c.): 77%
- Effect on normal drinking (Male, Wistar rats [2]; without isoproterenol): did not significantly affect

Reference: article PMC5438973 (Frontiers in Psychiatry, 2017)
